# Test results published in patent publication US20100119620A1, “SUPPRESSING MICROBIAL GROWTH IN PULP AND PAPER” (priority 2006, published 2010).
# Tests used:
# [1] = tested on: bacteria native to the process water sample; experiment: Bacterial density in paper process water (coated groundwood mill, pH 7.9) dosed with halogen, with re-challenge; type: cell-based
# Experimental: The unstabilized bleach solution was 3% as Cl2 in water. To prepare the stabilized chlorine solution we blended 5.0 mL NaOCl (3% as Cl2 in water) with 5.0 mL of an aqueous solution of urea and sodium hydroxide (0.5M urea in 5% NaOH). We then blended 5.0 mL NaOCl (3% as Cl2 in water) with 5.0 mL of an aqueous solution of urea and sodium hydroxide (0.25M urea in 5% NaOH). This yielded a 2:1 molar ratio of chlorine to urea.
# Paper process water was collected from a mill in the Northeastern US producing coated groundwood printing and writing grades (pH 7.9). Samples were dosed with halogen and plated after one and four hours. Following the four-hour sampling, process water was challenged with 1% (volume/volume) of untreated process water and samples were plated again after 24 hours.
# [2] = Halogen residuals (total and free) measured using DPD reagent after blending NaOCl with urea/NaOH; type: physicochemical
# Experimental: We blended 5.0 mL NaOCl (3% as Cl2 in water) with 5.0 mL of an aqueous solution of urea and sodium hydroxide (0.5M urea in 5% NaOH). To achieve a 2:1 molar ratio of chlorine to urea we blended 5.0 mL NaOCl (3% as Cl2 in water) with 5.0 mL of an aqueous solution of urea and sodium hydroxide (0.25M urea in 5% NaOH). Halogen residuals were measured using DPD reagent, and were recorded 3 minutes after mixing with the reagent.
# Because of the higher yield, less halogen is required to achieve the desired anti-microbial effect under these test conditions. […] The advantages of increased yield and improved anti-microbial activity are shown in Example 2.
# [3] = tested on: Sphaerotilus natans (ATCC 1529); experiment: Mean Biocidal Concentration for 100% kill of filamentous test isolate in buffered water (pH 7.2); type: cell-based
# Experimental: Two biocide solutions were evaluated and included NaOCl and NaOCl mixed with urea at a 1:1 molar ratio. The unstabilized NaOCl solution was 3% as Cl2 in water. To prepare the stabilized chlorine solution we blended 5.0 mL NaOCl (3% as Cl2 in water) with 5.0 mL of an aqueous solution of urea and sodium hydroxide (0.5M urea in 5% NaOH). In the case of the stabilized chlorine the NaOCl and urea were mixed prior to introduction to buffered water (pH 7.2) inoculated with approximately 1×10^5 bacterial filaments/mL of the filamentous test isolate. The filamentous test isolate used in this evaluation was Sphaerotilus natans (ATCC 1529). The Mean Biocidal Concentration was identified as the test chlorine concentration in ppm of total chlorine (Cl2) required for 100% kill of the filamentous test isolate.
# [4] = pH after mixing 9.8, recorded 3 minutes after mixing with DPD reagent
compound,measurement,setting,value
"[Na+].[O-]Cl [NaOC1, sodium hypochlorite]",Bacterial Density,"[1]; 2.5 ppm Total C12, contact time 1 hour",2 log 10 CFU/mL
same,Bacterial Density,"[1]; 2.5 ppm Total C12, contact time 4 hours",3.5 log 10 CFU/mL
same,Bacterial Density,"[1]; 2.5 ppm Total C12, contact time 24 hours, after challenge with 1% (v/v) untreated process water at 4 hours",7.4 log 10 CFU/mL
same,Bacterial Density,"[1]; 10 ppm Total C12, contact time 1 hour",2 log 10 CFU/mL
same,Bacterial Density,"[1]; 10 ppm Total C12, contact time 4 hours",2 log 10 CFU/mL
same,Bacterial Density,"[1]; 10 ppm Total C12, contact time 24 hours, after challenge with 1% (v/v) untreated process water at 4 hours",7.3 log 10 CFU/mL
same,Free Halogen (% Yield),[2]; [4],100 % Yield
same,Total Halogen (% Yield),[2]; [4],100 % Yield
same,Free Halogen (% Yield),[2]; pH after mixing 13.0,100 % Yield
same,Total Halogen (% Yield),[2]; pH after mixing 13.0,100 % Yield
same,Free Halogen (% Yield),[2]; pH after mixing 13.5,100 % Yield
same,Total Halogen (% Yield),[2]; pH after mixing 13.5,100 % Yield
same,Mean Biocidal Concentration S. natans,[3]; contact time 0.5 hours,5 ppm Total C12
same,Mean Biocidal Concentration S. natans,[3]; contact time 1 hour,5 ppm Total C12
same,Mean Biocidal Concentration S. natans,[3]; contact time 3.5 hours,5 ppm Total C12
same,Mean Biocidal Concentration S. natans,[3]; contact time 9 hours,5 ppm Total C12
